Experimental data as given in US9861601B2 (The Board of Trustees of the Leland Stanford Junior …, priority 2012, dated 2018).
Where two headings read alike, the source gives them in different places.

Experiments:
[1] = system: Rat pulmonary arterial endothelial cells (PAECs); assay: PAEC apoptosis assay (Annexin V flow cytometry, with or without macrophage co-culture); format: cell-based
Procedure: The transwell assay involved co-culturing IMØs from several sources with PAECs. IMØs, from (A) DMSO and (B) SU rat lungs, were isolated and co-cultured with PAECs. After 24 hr, PAEC apoptosis was analyzed by flow cytometry for Annexin V expression. To isolate the specific impact of LTB4 generated by 5-LO activation further, IMØs were extracted from healthy rats and transfected with S271E to produce a phosphorylation mimic mutant or with S271A to produce a dephosphorylation mimic mutant. Vector and WT 5-LO DNA-transfected IMØs were used as controls. Flow cytometry was performed on PAECs co-cultured with IMØs extracted from healthy rats and transfected with (C) vector as control, (D) WT 5-LO, (E) S271A, (F) S271E (G) S271E mutant treated with n-acetyl cysteine (NAC) (200 nM) or (H) S271A mutant treated with LTB4 (100 nM). PAECs were treated with (I) exogenous LTB4 (200 nM) or (J) LTB4 (200 nM) with a BLT1 inhibitor U75302 […] (n=3 experiments per group). Representative flow cytometry plots are shown, n=3 experiments per group.
The results reported in this example were obtained using the following PAEC apoptosis assay. Rat pulmonary arterial endothelial cells (PAECs) were co-cultured with macrophages (+/− transfection) for 24 hr. They were then washed once with PBS and once with binding buffer from the Annexin V Apoptosis Detection Kit (88-8007; eBioscience). Cells were then suspended in binding buffer at 1-5×10^6/ml. 5 μl of APC conjugated Annexin V was added to 100 μl of cells, which were then incubated at room temperature for 15 min. Five μl of propidium iodide staining solution were added 5 min. prior to flow cytometry analysis on an LSRFortessa cell analyzer (BD Biosciences).

[2] = system: human primary pulmonary arterial smooth muscle cell (hPASMC); assay: hPASMC proliferation (MTT) and hypertrophy (protein/DNA ratio) assay; format: cell-based; conditions: 24 hr
Procedure: An in vitro toxicology assay kit (#M-5655, #8910, Sigma) was used to measure the number of viable hPASMC after LTB4 treatment. Briefly, hPASMCs were plated in a 96 well plate one day before treatment. Cells were treated with 200 nM or 400 nM LTB4 for 24 hr. On the day of assay, growing medium was first removed from the cells, then 20 μL of 12 mM MTT ((3-(4,5-Dimethylthiazol-2-yl)-2,5-diphenyltetrazolium bromide, a yellow tetrazole)) stock solution were then added to each well. After incubation at 37 degrees C. for 4 hr, 200 μL MTT dissolution solution (10% Triton X-100 plus 0.1 N HCl in anhydrous isopropanol) were added to each well. Relative optical density, which was used as a parameter for proliferation, was calculated by subtracting the absorbance at 690 nm from that at 570 nm. Cellular hypertrophy was determined by protein/DNA ratio. hPASMCs were seeded on 6 well plates. Cells were treated with 200 nM or 400 nM LTB4 for 24 hr. hPASMCs were then collected and divided into to two. For one part of each sample, a BCA protein assay kit (#23227, Thermo Scientific) was used to determined the total protein amount. DNA was purified from the other part of the sample using a Miniprep kit (QIAGEN). DNA concentration was then measured by nanodrop.

[3] = patients with PAH; cited from earlier work
[4] = system: athymic rat model of PAH; assay: SU5416 athymic nude rat model of PAH (PH); format: in vivo; conditions: for reversal of established PH / PH-related death: treatment started 21 days (3 wk) after SU5416, doses as in b355, assessed at wk 5
Procedure: (§1) In the model, PH was first initiated by a single injection of a VEGFR2 inhibitor, SU5416, and monitored by weekly echocardiography. Survival of the animals was recorded on daily basis. […] After 5 weeks (day 35), animals were sacrificed after right heart catheterization. […] Oral availability of ubenimex was determined by pharmacokinetic analysis.
The athymic nude rat model is an accepted model of severe PAH associated with immune dysregulation. Athymic nude rats (rnu/rnu) (Charles River Laboratories) were used for these studies. Six to eight week old animals were injected subcutaneously (s.c.) with a single dose of either SU5416 (SU) (10 mg/kg) dissolved in DMSO or DMSO (vehicle) alone. All animals were maintained in normoxic conditions. PH progression was monitored by weekly echocardiography (ECHO). Survival of rats was monitored out to wk 5 when they underwent a terminal right heart catheterization. PH was confirmed by ECHO. Hemodynamic measurements included right ventricular systolic pressure (RVSP) determined by right heart catheterization and right ventricular hypertrophy (RVH) determined by the weight ratio of RV/(LV+S) (right ventricle/(left ventricle+septum)).
All animals were sacrificed 5 wk after SU administration for hemodynamic measurements. […] Serial improvement was observed from the time of treatment initiation. Interval improvement was manifested by decreasing RV wall thickness and increasing pulmonary artery acceleration times (PAAT) after initiation of treatment. […] Here again, the compound of Formula III was notable: treatment with that compound yielded an RVH ratio of 0.29. RVH for healthy rats is generally about 0.25.

[5] = Pharmacokinetic analysis of oral ubenimex formulation; format: in vivo, rat; conditions: PEG-400/HPCD formulation
Procedure: as §1
(not a statin-derivative), is a well-tolerated LTA4H inhibitor that blocks LTB4 formation. […] Ubenimex efficacy in reversing PAH was dose-dependent. The sustained release oral formulation was absorbed rapidly within 2-3 hours and was eliminated from the body with a T1/2 of 12 hours.
A 20% (w/v) aqueous solution of hydroxypropyl-β-cyclodextrin (HPCD) was added to the mixture to bring the volume to 50 ml.

[6] = system: model of rodent PH utilizing SU and exposure to chronic hypoxia; assay: Rodent PH model utilizing SU and chronic hypoxia (animals not prone to immune dysregulation); format: in vivo; conditions: therapy initiated late in disease development

CCCCC/C=C\C[C@@H](O)/C=C/C=C/C=C\[C@@H](O)CCCC(=O)O [LTB4, leukotriene B4]
PAEC apoptosis induced by exogenous leukotriene (no macrophages) ([1]; 24 hrs): significant apoptosis | PAEC apoptosis in co-culture with S271A transfected macrophages ([1]; exogenous LTB4 (100 nM)): caused apoptosis | cellular hypertrophy (protein/DNA ratio) ([2]; 200 nM or 400 nM): increased in a similar pattern | number of PASMC versus negative control group ([2]; 200 nM): 1.8 fold | number of PASMC versus negative control group ([2]; 400 nM): two fold more

CN1CC(=O)N2[C@H](c3ccc4c(c3)OCO4)c3[nH]c4ccccc4c3C[C@@H]2C1=O [Tadalafil]
half-life [3]: 35 h

CC(C)C[C@H](NC(=O)[C@@H](O)[C@H](N)Cc1ccccc1)C(=O)O [ubenimex, (2S)-2-[[(2S,3R)-3-amino-2-hydroxy-4-phenylbutanoyl]amino]-4-methylpentanoic acid]
accumulation of 5-LO expressing periarteriolar macrophages and B cells in lungs ([4]; SU-treated athymic rats): significantly reduced | in vivo PAEC apoptosis ([4]; SU-treated athymic rats): reduced | improvement in RVSP, RVH and survival ([4]; oral once a day 0.25, 0.5, 0.75, 1 mg/kg, from 3 weeks after SU5416 for 2 weeks): dose dependent improvement | prevention of PH development and survival ([4]; systemic therapy initiated when SU was first administered): very effectively prevented PH development and prolonged survival | reversal of established PH / PH-related death [4]: reverses established PH | reversal of established PH / PH-related death ([4]; listed as Ubenimex): dose-dependent | time of absorption [5]: ≤ 2 h | half-life ([5]; athymic, rat, in vivo): 12 h | response of PH animals to therapy [6]: did not respond
